What all share (type): cell-based, mouse
One data set concerns BMMs. Kind of data set: Bone resorption assay on hydroxyapatite-coated Osteo Assay plates. Particulars: 25 nM, compared with the control group. As to the method:
To explore the effect of DZNep on the function of osteoclast, BMMs on complete α-MEM were seeded at the density of 1 × 10^4 cells/well, in triplicate, on the Osteo Assay Surface plates (Corning, NY, USA). After thirty-six hours, the culture medium was replaced by complete α-MEM, with RANKL (50 ng/mL), and various doses of DZNep (control, 6.25, 12.5, and 25 nM). For EZH2 gene knockdown studies, the cells were transfected with virus constructed of different EZH2 short hairpin RNA (shRNA) and negative control shRNA by mixed with polybrene (final concentration of 10ug/ml) for 48 h. The transfection mixture was then replaced by complete α-MEM added with puromycin for 24 h, and the survived BMMs were seeded into a 96-well plate, in triplicate, at a density of 1 × 10^4 cells/well. The medium needs to be constantly replaced until the osteoclast had matured for 1 day. For Foxc1 inhibition experiment, the cells were separately transfected with negative control siRNA, negative control siRNA with DZNep, and Foxc1 small interfering RNA (siRNA) with DZNep and by mixed with transfection reagent and osteoclast culture medium. The transfection mixture was then replaced every 2 days until the osteoclast had been observed for 2 days. […] The total area of resorption was photographed and then calculated by ImageJ software (NIH, Bethesda, MD, USA).

Another data set has as its system primary BMMs. Kind of data set: CCK-8 cytotoxicity assay on BMMs. As to the method: Primary BMMs were obtained from whole bone marrow of male 6-week-old C57BL/6 mice. In brief, cells were extracted from the tibiae and femurs bone marrow and suspended in complete α-MEM (α-MEM supplemented with 30 ng/ml M-CSF, 10% FBS, and 1% penicillin/streptomycin). Then, the cell cultures were kept in a humid environment at 37 °C with 5% CO2 until they reached 90% confluence. The cytotoxic effects of DZNep on BMMs were then determined by the CCK-8 kit. Specifically, the BMMs were seeded into 96-well plates in triplicate at the density of 8 × 10^3 cells/well in presence of 100μL complete α-MEM for 24 h. After that, the cells were treated with increasing concentration of DZNep (control, 3.125, 6.25, 12.5, 25, 50, 100, 200 nM) for 24, 48, and 96 h. After treatment, 100μL medium contained 10% CCK-8 buffer was added to the wells and incubated in the dark at 37 °C for 2 h. The absorbance was then detected at 450 nm wavelength (650 nm reference) on a microplate reader.
Background: Formazan colour is commonly taken as a measure of viable cells.

A further data set relates to MAPKs signaling pathways. Kind of data set: Western blotting of MAPKs signaling pathways. The following applies: RAW264.7, 25 nM pretreatment, vs control. How it is done:
To explore the variation of the proteins on long-term activated signaling, BMMs were cultured in α-MEM containing M-CSF (30 ng/ml) and RANKL (50 ng/ml) at a density of 2 × 10^5 cells/well on 6-well plates. After 24 h, the BMMs were treated with or without 25 nM DZNep for 0, 1, 3, and 5 days, and total protein was obtained, respectively, on these specific time points. To determine the effect of DZNep on the protein of short-time activated phosphorylated, RAW264.7 cells were cultured in α-MEM at a density of 5 × 10^5 cells/well on 6-well plates. One day later, the cells were treated with the serum-free α-MEM in the presence or absence of DZNEP for 3 hand then stimulated with 50 ng/mL RANKL for 0, 10, 20, 30, and 60 min. To determine the efficiency of EZH2 shRna, BMMs were cultured in α-MEM at a density of 5 × 10^5 cells/well on 6-well plates. One day later, the cells were treated with negative control shRNA or different EZH2 shRNA for 2 days. To determine the efficiency of Foxc1 siRna, BMMs were cultured in α-MEM at a density of 5 × 10^5 cells/well on 6-well plates. […] After TBST wash for 3 times, the secondary fluorescence antibodies were incubated without light for 1 h at room temperature and the reactivity was visualized by using Odyssey V3.0 image scanning (Li-COR. Inc., Lincoln, NE, USA). […]

For `Nc1nccc2c1ncn2C1C=C(CO)C(O)C1O` (stereo not shown) [DZNep, 3-Deazaneplanocin], the bone resorption area result with BMMs is on record as “more than 30%”. Also, the “cytotoxicity on primary BMMs” value in the data set with primary BMMs (25 nM, CCK-8 at 24, 48, and 96 h) was “no cytotoxicity was found”. In addition, the IC50 in the data set with primary BMMs (Mus musculus, at 96 h, CCK-8, read-out: inhibitory concentration (IC50) against BMMs) came out at 326 nM. The “phosphorylation of JNK, p38, and ERK” value in the data set on MAPKs signaling pathways is “comparable”.

For the origin of these results see publication PMC8686256, “DZNep promotes mouse bone defect healing via enhancing both osteogenesis and osteoclastogenesis” (Stem Cell Research & Therapy, 2021).
